Calls of active or inactive are those of the source. The rule behind the calls is not given here.
Tests used:
[1] = Therapeutic index, ratio of IC50 for cytotoxicity against human MCF-10A cells to IC50 for antiproliferative activity against human A549 cells by MTT assay; assay type: toxicity, cell-based; conditions: MCF-10A cells versus A549 cells, read-out: Ratio IC50
[2] = Therapeutic index, ratio of IC50 for cytotoxicity against human Intestine 407 cells to IC50 for antiproliferative activity against human NCI-H1975 cells by MTT assay; assay type: toxicity, cell-based; conditions: Intestine 407 cells versus NCI-H1975 cells, read-out: Ratio IC50
[3] = Cytotoxicity against human WI-38 cells assessed as inhibition of cell proliferation incubated for 48 hrs by MTT assay; assay type: toxicity, cell-based
[4] = Upregulation of GPx1 mRNA expression in human WI-38 cells at 10 uM incubated for 24 hrs by real-time PCR analysis relative to control; assay type: functional
[5] = Therapeutic index, ratio of IC50 for cytotoxicity against human WI-38 cells to IC50 for antiproliferative activity against human A549 cells by MTT assay; assay type: toxicity, cell-based; conditions: WI-38 cells versus A549 cells, read-out: Ratio IC50
[6] = Therapeutic index, ratio of IC50 for cytotoxicity against human MCF10A cells to IC50 for antiproliferative activity against human NCI-H1975 cells by MTT assay; assay type: toxicity, cell-based; conditions: MCF10A cells versus NCI-H1975 cells, read-out: Ratio IC50
[7] = Upregulation of TrxR1 mRNA expression in human WI-38 cells at 10 uM incubated for 6 hrs by real-time PCR analysis relative to control; assay type: functional
[8] = Therapeutic index, ratio of IC50 for cytotoxicity against human MCF-10A cells to IC50 for antiproliferative activity against human NCI-H3122 cells by MTT assay; assay type: toxicity, cell-based; conditions: MCF-10A cells versus NCI-H3122 cells, read-out: Ratio IC50
[9] = Therapeutic index, ratio of IC50 for cytotoxicity against human Intestine 407 cells to IC50 for antiproliferative activity against human A549 cells by MTT assay; assay type: toxicity, cell-based; conditions: Intestine 407 cells versus A549 cells, read-out: Ratio IC50
WI-38 [10] = assay: Radioprotective activity against human WI-38 cells assessed as inhibition of radiation-induced cytotoxicity by measuring dose modification factor at 0.5 uM incubated for 24 hrs followed by irradiation with gamma radiation at 2 to 12 Gy by clonogenic assay relative to control; assay type: functional
[11] = Drug reactivity with trichloromethyl peroxyl radical (CCl3O2.) assessed as rate constant by ABTS2- based competition assay; assay type: physicochemical
[12] = Therapeutic index, ratio of IC50 for cytotoxicity against human WI-26 AV4 cells to IC50 for antiproliferative activity against human NCI-H3122 cells by MTT assay; assay type: toxicity, cell-based; conditions: WI-26 AV4 cells versus NCI-H3122 cells, read-out: Ratio IC50
[13] = Therapeutic index, ratio of IC50 for cytotoxicity against human WI-26 AV4 cells to IC50 for antiproliferative activity against human A549 cells by MTT assay; assay type: toxicity, cell-based; conditions: WI-26 AV4 cells versus A549 cells, read-out: Ratio IC50
A549 [14] = assay: (§1) Radiosensitization activity against human A549 cells assessed as potentiation of radiation-induced cytotoxicity by measuring dose modification factor at 0.5 uM pre-irradiated with gamma radiation at 4 Gy followed by incubation with drug and measured after 7 days by clonogenic assay relative to control; assay type: functional; conditions: time 7 day
WI-38 [15] = assay: Cytotoxicity against human WI-38 cells assessed as reduction in size and number of surviving clones incubated for 7 days by crystal violet staining method; assay type: toxicity, cell-based
GST = assay: Reduction in intracellular activity of GST in human WI-38 cells at 150 uM incubated for 24 hrs relative to control; assay type: toxicity, cell-based
[16] = Drug reactivity with Hypochlorous acid (HOCl) assessed as rate constant by CBA based competition assay; assay type: physicochemical
[17] = Therapeutic index, ratio of IC50 for cytotoxicity against human WI-38 cells to IC50 for antiproliferative activity against human NCI-H3122 cells by MTT assay; assay type: toxicity, cell-based; conditions: WI-38 cells versus NCI-H3122 cells, read-out: Ratio IC50
[18] = Cytotoxicity against human WI-26 AV4 cells assessed as inhibition of cell proliferation incubated for 48 hrs by MTT assay; assay type: toxicity, cell-based
NCI-H1975 = assay: Antiproliferative activity against human NCI-H1975 cells assessed as inhibition of cell proliferation incubated for 48 hrs by MTT assay; assay type: functional, cell-based; conditions: NCI-H1975, 48 h
A549 [19] = assay: Antiproliferative activity against human A549 cells assessed as inhibition of cell proliferation incubated for 48 hrs by MTT assay; assay type: functional, cell-based; conditions: A549, 48 h
[20] = Cytotoxicity against human MCF-10A cells assessed as inhibition of cell proliferation incubated for 48 hrs by MTT assay; assay type: toxicity, cell-based
NCI-H3122 = assay: Antiproliferative activity against human NCI-H3122 cells assessed as inhibition of cell proliferation incubated for 48 hrs by MTT assay; assay type: functional, cell-based; conditions: NCI-H3122, 48 h
[21] = Increase in GPx activity in human WI-38 cells at 10 uM incubated for 24 hrs relative to control; assay type: functional
[22] = Upregulation of TrxR1 mRNA expression in human WI-38 cells at 10 uM incubated for 24 hrs by real-time PCR analysis relative to control; assay type: functional
GR = assay: Reduction in intracellular activity of GR in human WI-38 cells at 150 uM incubated for 24 hrs relative to control; assay type: toxicity, cell-based
[23] = Therapeutic index, ratio of IC50 for cytotoxicity against human WI-38 cells to IC50 for antiproliferative activity against human NCI-H1975 cells by MTT assay; assay type: toxicity, cell-based; conditions: WI-38 cells versus NCI-H1975 cells, read-out: Ratio IC50
[24] = Therapeutic index, ratio of IC50 for cytotoxicity against human WI-26 AV4 cells to IC50 for antiproliferative activity against human NCI-H1975 cells by MTT assay; assay type: toxicity, cell-based; conditions: WI-26 AV4 cells versus NCI-H1975 cells, read-out: Ratio IC50
A549 [25] = assay: Anti-clonogenic activity against human A549 cells assessed as reduction in size and number of surviving clones incubated for 7 days by crystal violet staining method; assay type: functional, cell-based; conditions: A549, 168 h
[26] = Increase in TxrR activity in human WI-38 cells at 10 uM incubated for 24 hrs relative to control; assay type: functional
[27] = Cytotoxicity against human Intestine 407 cells assessed as inhibition of cell proliferation incubated for 48 hrs by MTT assay; assay type: toxicity, cell-based
[28] = Drug reactivity with H2O2 assessed as rate constant by absorbance based analysis; assay type: physicochemical
[29] = Therapeutic index, ratio of IC50 for cytotoxicity against human Intestine 407 cells to IC50 for antiproliferative activity against human NCI-H3122 cells by MTT assay; assay type: toxicity, cell-based; conditions: Intestine 407 cells versus NCI-H3122 cells, read-out: Ratio IC50
A549 [30] = assay: as §1, with “at 4.5” for “at 4”; assay type: functional; conditions: time 7 day
WI-38 [31] = assay: Radioprotective activity against human WI-38 cells assessed as recovery of radiation-induced decrease in TrxR activity at 10 uM pretreated for 24 hrs followed by irradiation with gamma radiation for 24 hrs; assay type: functional, cell-based; conditions: time 48.0 hrs
WI-38 [32] = assay: Upregulation of GPx1 mRNA expression in human WI-38 cells at 10 uM incubated for 6 hrs by real-time PCR analysis; assay type: functional, cell-based
WI-38 [33] = assay: Radioprotective activity against human WI-38 cells assessed as recovery of radiation-induced decrease in GPx activity at 10 uM pretreated for 24 hrs followed by irradiation with gamma radiation for 24 hrs; assay type: functional, cell-based; conditions: time 48.0 hrs
[34] = Drug reduction in DMSO-d6 in presence of 1 equiv. NAC by 77Se NMR spectroscopy; assay type: physicochemical

Structure (SMILES)	selectivity ratio [1]	selectivity ratio [2]	IC50 at 48 h [3]	fold change (FC) [4]	selectivity ratio [5]	selectivity ratio [6]	fold change (FC) [7]	selectivity ratio [8]	selectivity ratio [9]	Ratio (WI-38 [10])	K [11]	selectivity ratio [12]	selectivity ratio [13]	IC50 (WI-38 [15])	inhibition at 24 h, 150 µM (GST)	K [16]	selectivity ratio [17]	IC50 at 48 h [18]	IC50 (NCI-H1975)	IC50 (A549 [19])	other results
[2H]C([2H])([Se][Se]C([2H])([2H])C([2H])([2H])C(=O)O)C([2H])([2H])C(=O)O	9.8	110	1000 µM	~1.69	65.7	45.5	~2.04	22.4	33.3	1.16	0.8 10^8/M/s	11.8	36.2	35.5 µM	8%	9.5 10^4/M/s	21.5	550 µM	4.6 µM	15.2 µM	Ratio (A549 [14]): 0.83; IC50 at 48 h [20]: 150 µM; IC50 (NCI-H3122): 46.5 µM; fold change (FC) [21]: ~1.53; fold change (FC) [22]: ~5.17; inhibition at 24 h, 150 µM (GR): 13%; selectivity ratio [23]: 217; selectivity ratio [24]: 120; IC50 (A549 [25]): 0.9 µM; fold change (FC) [26]: ~1.71; IC50 at 48 h [27]: 507 µM; K [28]: 3.3 10^-2/M/s; selectivity ratio [29]: 10.8
O=C(O)CC[Se][Se]CCC(=O)O	4	32.5	171 µM	~1.73	11.2	5.7	~4.02	2.8	31.7	1.12	1 10^8/M/s	7	9.9	17.9 µM	24%	1.6 10^5/M/s	7.9	151 µM	10.6 µM	15.2 µM	Ratio (A549 [30]): 0.87; Activity (WI-38 [31]): Active; Activity (WI-38 [31]; tested as the 2H-labelled form): Active; IC50 at 48 h [20]: 61.2 µM; IC50 (NCI-H3122): 21.5 µM; fold change (FC) [21]: ~1.34; Activity (WI-38 [32]): inactive; Activity (WI-38 [32]; tested as the 2H-labelled form): inactive; fold change (FC) [22]: ~6.06; inhibition at 24 h, 150 µM (GR): 32%; Activity (WI-38 [33]): Active; Activity (WI-38 [33]; tested as the 2H-labelled form): Active; selectivity ratio [23]: 16.1; selectivity ratio [24]: 14.2; IC50 (A549 [25]): 1.2 µM; Drug metabolism [34]: Metabolite_Notdetected; fold change (FC) [26]: ~2; IC50 at 48 h [27]: 483 µM; K [28]: 5.2 10^-2/M/s; selectivity ratio [29]: 3.2

Source: ChEMBL document CHEMBL5532758, “Deuterium labeling improves the therapeutic index of 3,3'-diselenodipropionic acid as an anticancer agent: insights from redox reactions” (RSC Med Chem, 2024)
